From ChEMBL document CHEMBL6096690, “Synthesis and Biological Evaluation of Peripheral HTR2A Antagonists for Colorectal Cancer” (J Med Chem, 2025)
Activity calls are given as the source filed them. The rule behind the calls is not given here.

Legend:
RKO [1] = assay: Antiproliferative activity against human RKO cells assessed as inhibition of cell proliferation incubated for 24 to 48 hrs by CCK-8 assay; assay type: functional, cell-based; details: dose 1.5-12.5 µM, time 24-48 hrs
RKO [2] = assay: Antiproliferative activity against human RKO cells assessed as inhibition of cell proliferation at 1.5 to 12.5 uM by CCK-8 assay; assay type: functional, cell-based; details: dose 1.5-12.5 µM, time 24-48 hrs
SW480 [3] = assay: Antiproliferative activity against human SW480 cells assessed as inhibition of cell proliferation incubated for 24 to 48 hrs by CCK-8 assay; assay type: functional, cell-based; details: dose 1.5-12.5 µM, time 24-48 hrs
SW480 [4] = assay: Antiproliferative activity against human SW480 cells assessed as inhibition of cell proliferation at 1.5 to 12.5 uM by CCK-8 assay; assay type: functional, cell-based; details: dose 1.5-12.5 µM, time 24-48 hrs
CCD-18Co [5] = assay: Cytotoxicity against human CCD-18Co cells assessed as inhibition of cell proliferation incubated for 24 to 48 hrs by CCK-8 assay; assay type: toxicity, cell-based; details: dose lower 1.5 µM, time lower 24 hrs, dose upper 12.5 µM, time upper 48 hrs
CCD-18Co [6] = assay: Cytotoxicity against human CCD-18Co cells assessed as inhibition of cell proliferation at 1.5 to 12.5 uM by CCK-8 assay; assay type: toxicity, cell-based; details: dose lower 1.5 µM, time lower 24 hrs, dose upper 12.5 µM, time upper 48 hrs
HCT-116 [7] = assay: Induction of cell cycle arrest in human HCT-116 cells assessed as increase in sub-G1 phase cells incubated for 24 hrs by PI/RNase staining based flow cytometric analysis; assay type: functional; details: dose 5-10 µM
SW-620 [8] = assay: Induction of cell cycle arrest in human SW620 cells assessed as increase in sub-G1 phase cells incubated for 24 hrs by PI/RNase staining based flow cytometric analysis; assay type: functional; details: dose 5-10 µM
HCT-116 [9] = assay: Induction of apoptosis in human HCT-116 cells assessed as increase in apoptotic cells at 5 to 10 uM incubated for 24 hrs by Annexin V/propidium iodide staining based FACS assay; assay type: functional, cell-based; details: dose 5-10 µM
SW-620 [10] = assay: Induction of apoptosis in human SW620 cells assessed as increase in apoptotic cells at 5 to 10 uM incubated for 24 hrs by Annexin V/propidium iodide staining based FACS assay; assay type: functional, cell-based; details: dose 5-10 µM
HCT-116 [11] = assay: Induction of apoptosis in human HCT-116 cells assessed as upregulation of total P53 protein expression at 5 to 10 uM incubated for 24 hrs by Western blotting analysis; assay type: functional, cell-based; details: dose 5-10 µM
HCT-116 [12] = assay: Induction of apoptosis in human HCT-116 cells assessed as upregulation of acetylated P53 protein expression at 5 to 10 uM incubated for 24 hrs by Western blotting analysis; assay type: functional, cell-based; details: dose 5-10 µM
SW-620 [13] = assay: Induction of apoptosis in human SW620 cells assessed as upregulation of total P53 protein expression at 5 to 10 uM incubated for 24 hrs by Western blotting analysis; assay type: functional, cell-based; details: dose 5-10 µM
SW-620 [14] = assay: Induction of apoptosis in human SW620 cells assessed as upregulation of acetylated P53 protein expression at 5 to 10 uM incubated for 24 hrs by Western blotting analysis; assay type: functional, cell-based; details: dose 5-10 µM
HCT-116 [15] = assay: Induction of cell cycle arrest at sub-G1 phase in human HCT-116 cells assessed as increase in p21 protein expression at 5 to 10 uM incubated for 24 hrs by Western blotting analysis; assay type: functional, cell-based; details: dose 5-10 µM
SW-620 [16] = assay: Induction of cell cycle arrest at sub-G1 phase in human SW620 cells assessed as increase in p21 protein expression at 5 to 10 uM incubated for 24 hrs by Western blotting analysis; assay type: functional, cell-based; details: dose 5-10 µM
HCT-116 [17] = assay: Induction of apoptosis in human HCT-116 cells assessed as increase in cleaved caspase 3 expression incubated for 24 hrs by Western blotting analysis; assay type: functional, cell-based; details: dose 5-10 µM
SW-620 [18] = assay: Induction of apoptosis in human SW620 cells assessed as increase in cleaved caspase 3 expression incubated for 24 hrs by Western blotting analysis; assay type: functional, cell-based; details: dose 5-10 µM
HCT-116 [19] = assay: Induction of apoptosis in human HCT-116 cells assessed as increase in cleaved PARP expression incubated for 24 hrs by Western blotting analysis; assay type: functional, cell-based; details: dose 5-10 µM
SW-620 [20] = assay: Induction of apoptosis in human SW620 cells assessed as increase in cleaved PARP expression incubated for 24 hrs by Western blotting analysis; assay type: functional, cell-based; details: dose 5-10 µM
SW-620 [21] = assay: Antitumor activity against human SW620 cells xenografted in male athymic nude BALB/c mouse assessed as tumor growth inhibition at 10 mg/kg, ip administered once daily relative to control; assay type: functional; details: read-out: TGI
SW-620 [22] = assay: Antitumor activity against human SW620 cells xenografted in male athymic nude BALB/c mouse assessed as tumor growth inhibition at 50 mg/kg, ip administered once daily relative to control; assay type: functional; details: read-out: TGI
SW-620 [23] = assay: Antitumor activity against human SW620 cells xenografted in male athymic nude BALB/c mouse assessed as tumor growth inhibition administered intraperitoneally once daily relative to control; assay type: functional; details: dose 10-50 mg/kg, route ip
HCT-116 [24] = assay: Antitumor activity against human HCT-116 cells expressing firefly luciferase xenografted in male athymic nude BALB/c mouse assessed as tumor growth inhibition at 50 mg/kg, ip administered once daily by bioluminescence imaging analysis relative to control; assay type: functional; details: read-out: TGI
HCT-116 [25] = assay: Antitumor activity against human HCT-116 cells expressing firefly luciferase xenografted in male athymic nude BALB/c mouse assessed as decrease in bioluminescent signals at 50 mg/kg, ip administered once daily by bioluminescence imaging analysis; assay type: functional, organism-based
HCT-116 [26] = assay: Antitumor activity against human HCT-116 cells xenografted in male athymic nude BALB/c mouse assessed as tumor growth inhibition at 1 mg/kg, ip measured after 19 days relative to control; assay type: functional; details: HCT-116, 456 h, time 19 day, read-out: TGI
HCT-116 [27] = assay: Antitumor activity against human HCT-116 cells xenografted in male athymic nude BALB/c mouse assessed as tumor growth inhibition at 10 mg/kg, ip measured after 19 days relative to control; assay type: functional; details: HCT-116, 456 h, time 19 day, read-out: TGI
HCT-116 [28] = assay: Antitumor activity against human HCT-116 cells xenografted in male athymic nude BALB/c mouse assessed as increase in cleaved caspase 3 expression at 10 mg/kg, ip measured after 19 days by Immunohistochemical analysis; assay type: functional, organism-based; details: time 19.0 day
[29] = Toxicity in male athymic nude BALB/c mouse xenografted with human HCT-116 cells assessed as change in body weight at 1 to 10 mg/kg, ip administered once daily and measured after 19 days; assay type: organism-based; details: in vivo, 456 h, dose 1-10 mg/kg, time 19 day

For `Cl.Cl.O=C(NCc1ccc(OCC(O)CN2CCN(c3noc4cc(F)ccc34)CC2)cc1)N(Cc1ccc(F)cc1)C1CCNCC1` (centres undefined), the Activity (RKO [1]) was “Dose-dependent-effect”, the Activity (RKO [2]) was “Time-dependent-effect” and the Activity (SW480 [3]) was “Dose-dependent-effect”. The Activity (SW480 [4]) was “Time-dependent-effect”, the Activity (CCD-18Co [5]) was “Dose-dependent-effect” and the Activity (CCD-18Co [6]) was “Time-dependent-effect”. The Activity (HCT-116 [7]) was “Dose-dependent-effect”, the Activity (SW-620 [8]) was “Dose-dependent-effect” and the Activity (HCT-116 [9]) was “Active”. For the same compound, the Activity (SW-620 [10]) was “Active”, the Activity (HCT-116 [11]) was “Active” and the Activity (HCT-116 [12]) was “Active”. The Activity (SW-620 [13]) was “Active”, the Activity (SW-620 [14]) was “Active” and the Activity (HCT-116 [15]) was “Active”. For the same compound, the Activity (SW-620 [16]) was “Active”, the Activity (HCT-116 [17]) was “Dose-dependent-effect” and the Activity (SW-620 [18]) was “Dose-dependent-effect”. For the same compound, the Activity (HCT-116 [19]) was “Dose-dependent-effect”, the Activity (SW-620 [20]) was “Dose-dependent-effect” and the inhibition in vivo at 10 mg/kg (SW-620 [21]) was 30.8%. The inhibition in vivo at 50 mg/kg (SW-620 [22]) was 46.9%, the Activity (SW-620 [23]) was “Dose-dependent-effect” and the inhibition in vivo at 50 mg/kg (HCT-116 [24]) was 76.5%. The Activity (HCT-116 [25]) was “Active”, the inhibition in vivo at 1 mg/kg (HCT-116 [26]) was 38.8% and the inhibition in vivo at 10 mg/kg (HCT-116 [27]) was 53.3%. The Activity (HCT-116 [28]) was “Active” and the Activity [29] was “Non-toxic”.
